Laboratory results taken from patent US20070259909A1, “Novel Difluoroethoxy-Substituted Hydroxy-6-Phenylphenanthridines and Their Use as Pde4 Inhibitors” (ALTANA PHARMA AG, priority 2004, published 2007).

Molecular target: T1, PDE4B2 (Homo sapiens, UniProt Q07343)
T1 construct: made in house; host or cells: SF21 insect cells (baculovirus; virus generated in SF9 cells)
Test: PDE4B2 [3H]cAMP SPA enzyme assay (inhibition of PDE4 activity)
Assay type: biochemical
Settings: recombinant PDE4B2 (GB no. M97515) expressed in SF21 insect cells; cAMP substrate; 37° C., 15 min; read-out: -log IC50(mol/l), Inhibition of the PDE4 activity (converted)
Method: The PDE4B2 (GB no. M97515) was a gift of Prof. M. Conti (Stanford University, USA). It was amplified from the original plasmid (pCMV5) via PCR with primers Rb9 (5′-[…]-3′) and Rb10 (5′-[…]-3′) and cloned into the pCR-Bac vector (Invitrogen, Groningen, NL).
The recombinant baculovirus was prepared by means of homologous recombination in SF9 insect cells. The expression plasmid was cotransfected with Bac-N-Blue (Invitrogen, Groningen, NL) or Baculo-Gold DNA (Pharmingen, Hamburg) using a standard protocol (Pharmingen, Hamburg). Wt virus-free recombinant virus supernatant was selected using plaque assay methods. After that, high-titre virus supernatant was prepared by amplifying 3 times. […]
The SF21 insect cells were resuspended, at a concentration of approx. 10^7 cells/ml, in ice-cold (° C.) homogenization buffer (20 mM Tris, pH 8.2, containing the following additions: 140 mM NaCl, 3.8 mM KCl, 1 mM EGTA, 1 mM MgCl2, 10 mM P-mercaptoethanol, 2 mM benzamidine, 0.4 mM Pefablock, 10 μM leupeptin, […] pepstatin A, 5 μM trypsin inhibitor) and disrupted by ultrasonication. […] The protein content was determined by the Bradford method (BioRad, Munich) using BSA as the standard. […]
Representative inhibitory values determined for the compounds according to the invention follow from the following table A, in which the numbers of the compounds correspond to the numbers of the Examples.

T1 sequence (Q07343 1-564 isoform Q07343-2): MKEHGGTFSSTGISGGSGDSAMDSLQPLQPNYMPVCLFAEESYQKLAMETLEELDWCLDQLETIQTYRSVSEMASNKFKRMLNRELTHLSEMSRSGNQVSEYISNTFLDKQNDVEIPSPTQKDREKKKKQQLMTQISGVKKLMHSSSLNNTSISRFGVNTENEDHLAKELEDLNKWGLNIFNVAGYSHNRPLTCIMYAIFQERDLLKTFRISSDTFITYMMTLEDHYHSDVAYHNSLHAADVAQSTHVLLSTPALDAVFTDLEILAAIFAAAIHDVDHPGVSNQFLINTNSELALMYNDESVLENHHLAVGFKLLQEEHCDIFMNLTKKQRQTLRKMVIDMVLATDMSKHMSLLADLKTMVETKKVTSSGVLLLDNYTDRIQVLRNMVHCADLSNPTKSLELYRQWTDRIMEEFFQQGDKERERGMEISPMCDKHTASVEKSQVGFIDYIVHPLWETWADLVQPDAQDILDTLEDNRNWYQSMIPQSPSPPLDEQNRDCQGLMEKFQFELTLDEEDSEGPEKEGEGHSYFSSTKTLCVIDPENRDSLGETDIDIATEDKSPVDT

## COc1cc2c(cc1OCC(F)F)C1CC(O)CCC1N=C2c1ccc(F)cc1 (racemic) [Compound 1, (2RS,4aRS,10bRS)-9-(2,2-Difluoroethoxy)-6(4fluorophenyl)-8-methoxy-(1,2,3,4,4a,10b)-hexahydrophenanthridin-2-ol]
  IC50: 0.708 nM

## COc1cc2c(cc1OCC(F)F)[C@H]1C[C@H](O)CC[C@H]1N=C2c1ccc(C#N)cc1 (racemic) [Compound 3, 4-[(2RS,4aRS,10bRS)-9-(2,2-Difluoro-ethoxy)-2-hydroxy-8-methoxy-1,2,3,4,4a,10b-hexahydro-phenanthridin-6-yl]-benzonitrile]
  IC50: 1.82 nM
